Type in all cases: cell-based
The test system of one test is Mino cells. As to the kind of experiment: Antiproliferative effect, MTS cell viability assay, Mino cells. The conditions noted are these: Homo sapiens, MINO, Mino mantle cell lymphoma cells; read-out: IC50 (anti-proliferation) Mino cells. The gist of the method:
(§1)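 Mino and JeKo-1 mantle B-cell lymphoma lines were exposed to compound at 0, 0.001, 0.01, 0.1, 1 and 10 μM for 72 h. Viability was read by MTS reduction to formazan, measured as absorbance at 490 nm.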

In a further test the test system is JeKo-1 cells. Put plainly: Antiproliferative effect, MTS cell viability assay, JeKo-1 cells. The note with it: Homo sapiens; JeKo-1 mantle cell lymphoma cells; read-out: IC50 (anti-proliferation) JeKO-1 cells. The essentials:
as §1

For a further test, the target named is BTK (Homo sapiens, UniProt Q06187). As to the kind of experiment: BTK degradation, DC50 and Dmax of Table 1 (cell line not given). More on the design: endogenous in cells. The note with it: for DC50: concentration giving 50% reduction of BTK expression level.
Chain of BTK (Q06187 whole entry): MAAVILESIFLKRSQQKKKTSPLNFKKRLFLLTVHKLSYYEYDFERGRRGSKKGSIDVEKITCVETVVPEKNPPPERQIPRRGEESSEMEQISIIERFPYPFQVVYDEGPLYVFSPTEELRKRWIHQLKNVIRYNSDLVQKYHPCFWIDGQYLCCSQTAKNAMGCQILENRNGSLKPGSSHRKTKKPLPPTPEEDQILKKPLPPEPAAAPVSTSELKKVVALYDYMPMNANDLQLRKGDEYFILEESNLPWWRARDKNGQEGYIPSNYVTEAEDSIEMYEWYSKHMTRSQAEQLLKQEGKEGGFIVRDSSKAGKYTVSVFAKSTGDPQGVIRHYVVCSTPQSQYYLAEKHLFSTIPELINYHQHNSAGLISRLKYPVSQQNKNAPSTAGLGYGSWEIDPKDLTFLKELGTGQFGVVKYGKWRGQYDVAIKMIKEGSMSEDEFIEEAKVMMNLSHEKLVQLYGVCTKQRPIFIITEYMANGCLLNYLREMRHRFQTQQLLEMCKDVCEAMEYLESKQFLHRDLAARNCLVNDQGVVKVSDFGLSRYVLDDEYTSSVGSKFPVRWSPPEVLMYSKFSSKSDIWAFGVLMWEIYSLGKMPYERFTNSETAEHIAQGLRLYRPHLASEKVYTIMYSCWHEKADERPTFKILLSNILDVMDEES

Consider 15 molecules from US12139492B2 (Endotarget Inc., priority 2021, dated 2024).

As for `Nc1ncnc2c1c(-c1ccc(Oc3ccccc3)cc1)nn2C1CCN(CCOCCC2CCN(c3ccc4c(c3)C(=O)N(C3CCC(=O)NC3=O)C4=O)CC2)CC1` (centres unmarked) [Compound 19, 5-(4-(2-(2-(4-(4-amino-3-(4-phenoxyphenyl)-1H-pyrazolo[3,4-d]pyrimidin-1-yl)piperidin-1-yl)ethoxy)ethyl)piperidin-1-yl)-2-(2,6-dioxopiperidin-3-yl)isoindoline-1,3-dione], the IC50 with Mino cells was 1000 to 10000 nM. Further, the IC50 in the test with JeKo-1 cells is 1000 to 10000 nM. On BTK, this molecule had a Dmax of more than 90% and a DC50 of 10 to 50 nM.
As for `Nc1ncnc2c1c(-c1ccc(Oc3ccccc3)cc1)nn2C1CCN(CCOCCC2CCN(c3ccc4c(c3)CN(C3CCC(=O)NC3=O)C4=O)CC2)CC1` (centres unmarked) [Compound 20, 3-(5-(4-(2-(2-(4-(4-amino-3-(4-phenoxyphenyl)-1H-pyrazolo[3,4-d]pyrimidin-1-yl)piperidin-1-yl)ethoxy)ethyl)piperidin-1-yl)-1-oxoisoindolin-2-yl)piperidine-2,6-dione], in the test on Mino cells, the IC50 was 1000 to 10000 nM. The IC50 with JeKo-1 cells lay in the range of 1000 to 10000 nM. At BTK, this molecule returned a Dmax of more than 90% and a DC50 of 10 to 50 nM.
With `Nc1ncnc2c1c(-c1ccc(Oc3ccccc3)cc1)nn2C1CCCN(CCOCCOCCC2CCN(c3ccc4c(c3)C(=O)N(C3CCC(=O)NC3=O)C4=O)CC2)C1` (centres unmarked) [Compound 21, 5-(4-(2-(2-(2-(3-(4-amino-3-(4-phenoxyphenyl)-1H-pyrazolo[3,4-d]pyrimidin-1-yl)piperidin-1-yl)ethoxy)ethoxy)ethyl)piperidin-1-yl)-2-(2,6-dioxopiperidin-3-yl)isoindoline-1,3-dione], the IC50 with Mino cells and in the test on JeKo-1 cells was 1000 to 10000 nM throughout. In addition, at BTK, the Dmax was more than 90%. At BTK, this molecule showed a DC50 of less than 10 nM.
For the molecule `Nc1ncnc2c1c(-c1ccc(Oc3ccccc3)cc1)nn2C1CCCN(CCOCCOCCC2CCN(c3ccc4c(c3)CN(C3CCC(=O)NC3=O)C4=O)CC2)C1` (centres unmarked) [Compound 22, 3-(5-(4-(2-(2-(2-(3-(4-amino-3-(4-phenoxyphenyl)-1H-pyrazolo[3,4-d]pyrimidin-1-yl)piperidin-1-yl)ethoxy)ethoxy)ethyl)piperidin-1-yl)-1-oxoisoindolin-2-yl)piperidine-2,6-dione], the results for the IC50 in the test on Mino cells and in the test with JeKo-1 cells were less than 1000 nM and 1000 to 10000 nM, respectively. Besides, on BTK, the Dmax is more than 90%. On BTK, this molecule returned a DC50 of less than 10 nM.
On the same counts, the results for `Nc1ncnc2c1c(-c1ccc(Oc3ccccc3)cc1)nn2C1CCCN(CCOCCC2CCN(c3ccc4c(c3)C(=O)N(C3CCC(=O)NC3=O)C4=O)CC2)C1` (centres unmarked) [Compound 23, 5-(4-(2-(2-(3-(4-amino-3-(4-phenoxyphenyl)-1H-pyrazolo[3,4-d]pyrimidin-1-yl)piperidin-1-yl)ethoxy)ethyl)piperidin-1-yl)-2-(2,6-dioxopiperidin-3-yl)isoindoline-1,3-dione] are 1000 to 10000 nM, 1000 to 10000 nM, more than 75% and more than 50 nM.
For `Nc1ncnc2c1c(-c1ccc(Oc3ccccc3)cc1)nn2[C@@H]1CCCN(CC2CCN(C(=O)N3CCN(c4ccc5c(c4)CN(C4CCC(=O)NC4=O)C5=O)CC3)CC2)C1` (stereo partly drawn) [Compound 26, 3-(5-(4-(4-(((R)-3-(4-amino-3-(4-phenoxyphenyl)-1H-pyrazolo[3,4-d]pyrimidin-1-yl)piperidin-1-yl)methyl)piperidine-1-carbonyl)piperazin-1-yl)-1-oxoisoindolin-2-yl)piperidine-2,6-dione], the IC50 in the test with Mino cells and in the test with JeKo-1 cells was 1000 to 10000 nM in each case. This molecule gave a Dmax at BTK of more than 75%. The DC50 on BTK was more than 50 nM.
Turning to `Nc1ncnc2c1c(-c1ccc(Oc3ccccc3)cc1)nn2[C@@H]1CCCN(CC2CCN(C(=O)N3CCC(C4CCN(c5ccc6c(c5)CN(C5CCC(=O)NC5=O)C6=O)CC4)CC3)CC2)C1` (stereo partly drawn) [Compound 30, 3-(5-(1′-(4-(((R)-3-(4-amino-3-(4-phenoxyphenyl)-1H-pyrazolo[3,4-d]pyrimidin-1-yl)piperidin-1-yl)methyl)piperidine-1-carbonyl)-[4,4′-bipiperidin]-1-yl)-1-oxoisoindolin-2-yl)piperidine-2,6-dione], the IC50 in the test with Mino cells and in the test on JeKo-1 cells was 1000 to 10000 nM each time. At BTK, the greatest degradation seen (Dmax) was more than 90%. At BTK, the DC50 is 10 to 50 nM.
As to `Nc1ncnc2c1c(-c1ccc(Oc3ccccc3)cc1)nn2[C@@H]1CCCN(CC2CCN(C(=O)N3CCC(CN4CCN(c5ccc6c(c5)CN(C5CCC(=O)NC5=O)C6=O)CC4)CC3)CC2)C1` (stereo partly drawn) [Compound 32, 3-(5-(4-((1-(4-(((R)-3-(4-amino-3-(4-phenoxyphenyl)-1H-pyrazolo[3,4-d]pyrimidin-1-yl)piperidin-1-yl)methyl)piperidine-1-carbonyl)piperidin-4-yl)methyl)piperazin-1-yl)-1-oxoisoindolin-2-yl)piperidine-2,6-dione], in the test with Mino cells, the IC50 lay in the range of 1000 to 10000 nM. Also, the IC50 in the test with JeKo-1 cells was in the range of 1000 to 10000 nM. On BTK, this molecule yielded a Dmax of more than 90% and a DC50 of 10 to 50 nM.
For `Nc1ncnc2c1c(-c1ccc(Oc3ccccc3)cc1)nn2[C@@H]1CCCN(CC2CCN(C(=O)N3CCC(CCN4CCN(c5ccc6c(c5)CN(C5CCC(=O)NC5=O)C6=O)CC4)CC3)CC2)C1` (stereo partly drawn) [Compound 34, 3-(5-(4-(2-(1-(4-(((R)-3-(4-amino-3-(4-phenoxyphenyl)-1H-pyrazolo[3,4-d]pyrimidin-1-yl)piperidin-1-yl)methyl)piperidine-1-carbonyl)piperidin-4-yl)ethyl)piperazin-1-yl)-1-oxoisoindolin-2-yl)piperidine-2,6-dione], the IC50 in the test with Mino cells lay within 1000 to 10000 nM. The IC50 in the test on JeKo-1 cells lay within 1000 to 10000 nM. In addition, on BTK, the Dmax was more than 90% and the DC50 was more than 50 nM.
For `Nc1ncnc2c1c(-c1ccc(Oc3ccccc3)cc1)nn2C1CCN(CC2CCN(C(=O)N3CCC(N4CCN(c5ccc6c(c5)CN(C5CCC(=O)NC5=O)C6=O)CC4)CC3)CC2)CC1` (centres unmarked) [Compound 38, 3-(5-(4-(1-(4-((4-(4-amino-3-(4-phenoxyphenyl)-1H-pyrazolo[3,4-d]pyrimidin-1-yl)piperidin-1-yl)methyl)piperidine-1-carbonyl)piperidin-4-yl)piperazin-1-yl)-1-oxoisoindolin-2-yl)piperidine-2,6-dione], the IC50 in the test with Mino cells is less than 1000 nM. The IC50 in the test with JeKo-1 cells was less than 1000 nM. On BTK, this molecule came in with a Dmax of more than 90% and a half-maximal degradation concentration (DC50) of 10 to 50 nM.
Regarding `Nc1ncnc2c1c(-c1ccc(Oc3ccccc3)cc1)nn2C1CCN(CC2CCN(C(=O)N3CCC(C4CCN(c5ccc6c(c5)CN(C5CCC(=O)NC5=O)C6=O)CC4)CC3)CC2)CC1` (centres unmarked) [Compound 40, 3-(5-(1′-(4-((4-(4-amino-3-(4-phenoxyphenyl)-1H-pyrazolo[3,4-d]pyrimidin-1-yl)piperidin-1-yl)methyl)piperidine-1-carbonyl)-[4,4′-bipiperidin]-1-yl)-1-oxoisoindolin-2-yl)piperidine-2,6-dione], in the test on Mino cells, the IC50 was 1000 to 10000 nM. In the test on JeKo-1 cells, the IC50 was 1000 to 10000 nM. Also, on BTK, the Dmax is more than 90% and the DC50 was more than 50 nM.
Turning to `Nc1ncnc2c1c(-c1ccc(Oc3ccccc3)cc1)nn2C1CCN(CC2CCN(C(=O)N3CCC(CN4CCN(c5ccc6c(c5)CN(C5CCC(=O)NC5=O)C6=O)CC4)CC3)CC2)CC1` (centres unmarked) [Compound 42, 3-(5-(4-((1-(4-((4-(4-amino-3-(4-phenoxyphenyl)-1H-pyrazolo[3,4-d]pyrimidin-1-yl)piperidin-1-yl)methyl)piperidine-1-carbonyl)piperidin-4-yl)methyl)piperazin-1-yl)-1-oxoisoindolin-2-yl)piperidine-2,6 dione], in the test on Mino cells, the IC50 is less than 1000 nM. For the same molecule, the IC50 in the test with JeKo-1 cells was less than 1000 nM. At BTK, this molecule had a Dmax of more than 90% and a DC50 of 10 to 50 nM.
Take `Nc1ncnc2c1c(-c1ccc(Oc3ccccc3)cc1)nn2C1CCN(CC2CCN(C(=O)N3CCC(CCN4CCN(c5ccc6c(c5)C(=O)N(C5CCC(=O)NC5=O)C6=O)CC4)CC3)CC2)CC1` (centres unmarked) [Compound 43, 5-(4-(2-(1-(4-((4-(4-amino-3-(4-phenoxyphenyl)-1H-pyrazolo[3,4-d]pyrimidin-1-yl)piperidin-1-yl)methyl)piperidine-1-carbonyl)piperidin-4-yl)ethyl)piperazin-1-yl)-2-(2,6-dioxopiperidin-3-yl)isoindoline-1,3-dione]: the IC50 in the test on Mino cells and in the test with JeKo-1 cells was 1000 to 10000 nM each time. On BTK, this molecule displayed a Dmax of more than 90%.
In the case of `Nc1ncnc2c1c(-c1ccc(Oc3ccccc3)cc1)nn2C1CCN(CC2CCN(C(=O)N3CCC(CCN4CCN(c5ccc6c(c5)CN(C5CCC(=O)NC5=O)C6=O)CC4)CC3)CC2)CC1` (centres unmarked) [Compound 44, 3-(5-(4-(2-(1-(4-((4-(4-amino-3-(4-phenoxyphenyl)-1H-pyrazolo[3,4-d]pyrimidin-1-yl)piperidin-1-yl)methyl)piperidine-1-carbonyl)piperidin-4-yl)ethyl)piperazin-1-yl)-1-oxoisoindolin-2-yl)piperidine-2,6-dione], the IC50 in the test with Mino cells was 1000 to 10000 nM. In addition, in the test with JeKo-1 cells, the IC50 fell in the range of 1000 to 10000 nM. Besides, on BTK, the Dmax was more than 90% and the DC50 is 10 to 50 nM.
Regarding `Nc1ncnc2c1c(-c1ccc(Oc3ccccc3)cc1)nn2[C@@H]1CCCN(C(=O)N2CCN(c3ccc4c(c3)CN(C3CCC(=O)NC3=O)C4=O)CC2)C1` (stereo partly drawn) [Compound 46, 3-(5-(4-((R)-3-(4-amino-3-(4-phenoxyphenyl)-1H-pyrazolo[3,4-d]pyrimidin-1-yl)piperidine-1-carbonyl)piperazin-1-yl)-1-oxoisoindolin-2-yl)piperidine-2,6-dione], the IC50 in the test on Mino cells was more than 10000 nM. In addition, in the test with JeKo-1 cells, the IC50 was more than 10000 nM. Moreover, at BTK, the Dmax is more than 50% and the DC50 is more than 50 nM.
